Experimental findings from patent publication US20240239792A1, “MODULATORS OF BCL-2 OR BCL-2/BCL-XL AND USES THEREOF” (APPICINE THERAPEUTICS (HK) LIMITED, priority 2021, published 2024) are described below.

Where only a bound is given, the exact number is not on record here.

Test [1] addresses T1, BCL-2 (Homo sapiens, UniProt P10415).
T1 construct: purchased Cisbio 63ADK000CB01PEG
The test can be described thus: HTRF BCL-2/BAK assay (Cisbio). As to conditions: recombinant human Tag1-BCL-2 2 nM, Tag2-BAK 10 nM. In kind it is binding. How it is done:
(§1) Then the pre-mixed anti-Tag1-Eu^3+ and anti-tag2-XL665 were added to the plate and further incubated at room temperature for another 2 hours. The signals ([…]) were read on Envision 2104 instrument. The IC50 for each compound was derived from fitting the signal of 665/615 nM to the increasing compound concentration.
(§2) Using the above assays, the following compounds were tested.

Test [2] deals with T2, BCL-XL (Homo sapiens, UniProt Q07817).
T2 construct: purchased Cisbio 63ADK000CB04PEG
T2 sequence (Q07817 whole entry): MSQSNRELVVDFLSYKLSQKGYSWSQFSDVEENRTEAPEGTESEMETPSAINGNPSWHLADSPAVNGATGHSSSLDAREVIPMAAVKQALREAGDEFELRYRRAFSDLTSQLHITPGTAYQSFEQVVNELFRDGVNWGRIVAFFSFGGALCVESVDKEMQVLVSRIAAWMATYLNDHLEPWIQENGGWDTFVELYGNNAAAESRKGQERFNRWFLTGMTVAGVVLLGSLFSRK
Description: HTRF BCL-XL/BAK assay (Cisbio). In kind it is binding. As to conditions: recombinant human Tag1-BCL-XL 2 nM, Tag2-BAK 5 nM. Here is the method: as §1, §2

For test [3], the system named is DOHH2 cells. Description: CellTiter-Glo cell proliferation assay, DOHH2 cells. In kind it is cell-based. The following applies: Homo sapiens, DOHH-2, 72 hours. Summed up:
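DOHH2 cells seeded in DMEM + 10% FBS, exposed to serially diluted compound for 72 h at 37 °C, 5% CO2. Viability read by CellTiter-Glo luminescence; GI50 calculated.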

T1 sequence (P10415 whole entry): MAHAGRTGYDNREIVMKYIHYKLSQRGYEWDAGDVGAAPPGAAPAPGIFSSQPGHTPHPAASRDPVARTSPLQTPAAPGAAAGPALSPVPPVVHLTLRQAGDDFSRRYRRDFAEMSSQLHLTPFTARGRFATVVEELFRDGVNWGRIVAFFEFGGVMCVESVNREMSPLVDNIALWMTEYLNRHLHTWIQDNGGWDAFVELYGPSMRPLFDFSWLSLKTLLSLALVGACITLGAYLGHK

Turning to `O=C(NS(=O)(=O)c1ccc(NCC2(O)CCN(C3COC3)CC2)c([N+](=O)[O-])c1)c1ccc(N2CCN([C@@H]3CCCCc4c(Cl)cc(F)cc43)CC2)cc1Oc1cnc2[nH]ccc2c1` [Compound 88, (R)-2-((1H-pyrrolo[2,3-b]pyridin-5-yl)oxy)-4-(4-(1-chloro-3-fluoro-6,7,8,9-tetrahydro-5H-benzo[7]annulen-5-yl)piperazin-1-yl)-N-((4-(((4-hydroxy-1-(oxetan-3-yl)piperidin-4-yl)methyl)amino)-3-nitrophenyl)sulfonyl)benzamide], the IC50 in test [1] and in test [2] was below 20 nM throughout. Besides, the GI50 in test [3] was below 50 nM.
Regarding `O=C(NS(=O)(=O)c1ccc(NCC2CCOCC2)c([N+](=O)[O-])c1)c1ccc(N2CCN(C3CCCCc4ccc(F)cc43)CC2)cc1Oc1cnc2[nH]ccc2c1` (stereo not drawn) [Compound 37, 2-((1H-pyrrolo[2,3-b]pyridin-5-yl)oxy)-4-(4-(3-fluoro-6,7,8,9-tetrahydro-5H-benzo[7]annulen-5-yl)piperazin-1-yl)-N-((3-nitro-4-(((tetrahydro-2H-pyran-4-yl)methyl)amino)phenyl)sulfonyl)benzamide], the IC50 in test [1] was below 20 nM; in test [2] it was 200 to 2000 nM. In test [3], the GI50 was 50 to 500 nM.
In the same order, the values of `O=C(NS(=O)(=O)c1ccc(NCCN2CCC3(CC2)COC3)c([N+](=O)[O-])c1)c1ccc(N2CCN(C3CCCCc4c(Cl)cccc43)CC2)cc1Oc1cnc2[nH]ccc2c1` (stereo not drawn) [Compound 42, 2-((1H-pyrrolo[2,3-b]pyridin-5-yl)oxy)-N-((4-((2-(2-oxa-7-azaspiro[3.5]nonan-7-yl)ethyl)amino)-3-nitrophenyl)sulfonyl)-4-(4-(1-chloro-6,7,8,9-tetrahydro-5H-benzo[7]annulen-5-yl)piperazin-1-yl)benzamide] are below 20 nM, below 20 nM and 50 to 500 nM.
In the same order, the values of `CCN1CCC2(CC1)CC(CNc1ccc(S(=O)(=O)NC(=O)c3ccc(N4CCN([C@@H]5CCCCc6c(Cl)cccc65)CC4)cc3Oc3cnc4[nH]ccc4c3)cc1[N+](=O)[O-])C2` [Compound 131, (R)-2-((1H-pyrrolo[2,3-b]pyridin-5-yl)oxy)-4-(4-(1-chloro-6,7,8,9-tetrahydro-5H-benzo[7]annulen-5-yl)piperazin-1-yl)-N-((4-(((7-ethyl-7-azaspiro[3.5]nonan-2-yl)methyl)amino)-3-nitrophenyl)sulfonyl)benzamide] are below 20 nM, below 20 nM and below 50 nM.
With `CN1CCC(CNc2ccc(S(=O)(=O)NC(=O)c3ccc(N4CCN(C5CCCCc6c(Cl)cccc65)CC4)cc3Oc3cnc4[nH]ccc4c3)cc2[N+](=O)[O-])CC1` (stereo not drawn) [Compound 29, 2-((1H-pyrrolo[2,3-b]pyridin-5-yl)oxy)-4-(4-(1-chloro-6,7,8,9-tetrahydro-5H-benzo[7]annulen-5-yl)piperazin-1-yl)-N-((4-(((1-methylpiperidin-4-yl)methyl)amino)-3-nitrophenyl)sulfonyl)benzamide], the IC50 in test [1] and in test [2] was below 20 nM throughout. In addition, the GI50 in test [3] is below 50 nM.
Consider `O=C(NS(=O)(=O)c1ccc(NCC2CCOCC2)c([N+](=O)[O-])c1)c1ccc(N2CCN(C3CCCCc4cc(Br)ccc43)CC2)cc1Oc1cnc2[nH]ccc2c1` (stereo not drawn) [Compound 23, 2-((1H-pyrrolo[2,3-b]pyridin-5-yl)oxy)-4-(4-(2-bromo-6,7,8,9-tetrahydro-5H-benzo[7]annulen-5-yl)piperazin-1-yl)-N-((3-nitro-4-(((tetrahydro-2H-pyran-4-yl)methyl)amino)phenyl)sulfonyl)benzamide], for which the IC50 in test [1] is 20 to 200 nM; in test [2] it was 200 to 2000 nM. In test [3], this molecule gave a GI50 of 500 to 5000 nM.
In the same order, the values of `CC(C)(C)OC(=O)NCCN1CCC2(CC1)CC(CNc1ccc(S(=O)(=O)NC(=O)c3ccc(N4CCN([C@@H]5CCCCc6c(Cl)cccc65)CC4)cc3)cc1[N+](=O)[O-])C2` [Compound 119, tert-butyl (R)-(2-(2-(((4-(N-(4-(4-(1-chloro-6,7,8,9-tetrahydro-5H-benzo[7]annulen-5-yl)piperazin-1-yl)benzoyl)sulfamoyl)-2-nitrophenyl)amino)methyl)-7-azaspiro[3.5]nonan-7-yl)ethyl)carbamate] are 20 to 200 nM, 200 to 2000 nM and 50 to 500 nM.
In the same order, the values of `O=C(NS(=O)(=O)c1ccc(NCC2CCN(C3COC3)CC2)c([N+](=O)[O-])c1)c1ccc(N2CCN([C@@H]3CCCCc4c(Cl)cccc43)CC2)cc1Oc1cnc2[nH]ccc2c1` [Compound 83, (R)-2-((1H-pyrrolo[2,3-b]pyridin-5-yl)oxy)-4-(4-(1-chloro-6,7,8,9-tetrahydro-5H-benzo[7]annulen-5-yl)piperazin-1-yl)-N-((3-nitro-4-(((1-(oxetan-3-yl)piperidin-4-yl)methyl)amino)phenyl)sulfonyl)benzamide] are below 20 nM, below 20 nM and below 50 nM.
In the same order, the values of `O=C(NS(=O)(=O)c1ccc(NCC2CC3(CCOCC3)C2)c([N+](=O)[O-])c1)c1ccc(N2CCN([C@@H]3CCCCc4c(Cl)cccc43)CC2)cc1Oc1cnc2[nH]ccc2c1` [Compound 99, (R)-2-((1H-pyrrolo[2,3-b]pyridin-5-yl)oxy)-N-((4-(((7-oxaspiro[3.5]nonan-2-yl)methyl)amino)-3-nitrophenyl)sulfonyl)-4-(4-(1-chloro-6,7,8,9-tetrahydro-5H-benzo[7]annulen-5-yl)piperazin-1-yl)benzamide] are below 20 nM, 20 to 200 nM and below 50 nM.
Regarding `O=C(NS(=O)(=O)c1ccc(NCC2CCOCC2)c([N+](=O)[O-])c1)c1ccc(N2CCN(C3CCCCc4c(C5=CCCC5)cccc43)CC2)cc1Oc1cnc2[nH]ccc2c1` (stereo not drawn) [Compound 47, 2-((1H-pyrrolo[2,3-b]pyridin-5-yl)oxy)-4-(4-(1-(cyclopent-1-en-1-yl)-6,7,8,9-tetrahydro-5H-benzo[7]annulen-5-yl)piperazin-1-yl)-N-((3-nitro-4-(((tetrahydro-2H-pyran-4-yl)methyl)amino)phenyl)sulfonyl)benzamide], the figures for the IC50 in test [1] and in test [2] were 20 to 200 nM and above 2000 nM, respectively. This molecule had a 50% growth inhibitory concentration (GI50) in test [3] above 5000 nM.
In the same order, the values of `CN1CC2CC1CC2CNc1ccc(S(=O)(=O)NC(=O)c2ccc(N3CCN(C4CCCCc5c(Cl)cccc54)CC3)cc2Oc2cnc3[nH]ccc3c2)cc1[N+](=O)[O-]` (stereo not drawn) [Compound 44, 2-((1H-pyrrolo[2,3-b]pyridin-5-yl)oxy)-4-(4-(1-chloro-6,7,8,9-tetrahydro-5H-benzo[7]annulen-5-yl)piperazin-1-yl)-N-((4-(((2-methyl-2-azabicyclo[2.2.1]heptan-5-yl)methyl)amino)-3-nitrophenyl)sulfonyl)benzamide] are below 20 nM, below 20 nM and 50 to 500 nM.
As for `O=C(NS(=O)(=O)c1cccc([N+](=O)[O-])c1)c1ccc(N2CCN(C3CCCCc4ccccc43)CC2)cc1Oc1cnc2[nH]ccc2c1` (stereo not drawn) [Compound 5, 2-((1H-pyrrolo[2,3-b]pyridin-5-yl)oxy)-N-((3-nitrophenyl)sulfonyl)-4-(4-(6,7,8,9-tetrahydro-5H-benzo[7]annulen-5-yl)piperazin-1-yl)benzamide], the values for the IC50 in test [1] and in test [2] were 20 to 200 nM and 200 to 2000 nM, respectively. In test [3], this molecule returned a concentration for 50% growth inhibition (GI50) of 500 to 5000 nM.
